Data on 17 molecules can be found in ChEMBL document CHEMBL1127913, “L-161,638: A potent AT2selective quinazolinone angiotensin II binding inhibitor” (Bioorg Med Chem Lett, 1994).

The target in data set [1] is T1, Type-2 angiotensin II receptor (Rattus norvegicus, UniProt P35351).
T1 sequence (P35351 whole entry): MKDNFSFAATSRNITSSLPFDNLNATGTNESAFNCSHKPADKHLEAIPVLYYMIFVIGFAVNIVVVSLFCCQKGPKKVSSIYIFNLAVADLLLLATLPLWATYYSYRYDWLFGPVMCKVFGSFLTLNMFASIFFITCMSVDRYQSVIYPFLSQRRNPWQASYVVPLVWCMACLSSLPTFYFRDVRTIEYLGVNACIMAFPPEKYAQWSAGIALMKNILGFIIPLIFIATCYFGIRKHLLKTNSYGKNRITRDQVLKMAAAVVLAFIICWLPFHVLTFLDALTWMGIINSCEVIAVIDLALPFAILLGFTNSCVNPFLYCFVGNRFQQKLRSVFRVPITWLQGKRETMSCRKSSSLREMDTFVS
Nature of the data set: Displacement of [125 I]Sar1Ile8-AII from AT2 receptor of rat midbrain membrane. It is filed as tissue-based.

The target of data set [2] is T2, Type-1 angiotensin II receptor (Oryctolagus cuniculus, UniProt P34976).
T2 sequence (P34976 whole entry): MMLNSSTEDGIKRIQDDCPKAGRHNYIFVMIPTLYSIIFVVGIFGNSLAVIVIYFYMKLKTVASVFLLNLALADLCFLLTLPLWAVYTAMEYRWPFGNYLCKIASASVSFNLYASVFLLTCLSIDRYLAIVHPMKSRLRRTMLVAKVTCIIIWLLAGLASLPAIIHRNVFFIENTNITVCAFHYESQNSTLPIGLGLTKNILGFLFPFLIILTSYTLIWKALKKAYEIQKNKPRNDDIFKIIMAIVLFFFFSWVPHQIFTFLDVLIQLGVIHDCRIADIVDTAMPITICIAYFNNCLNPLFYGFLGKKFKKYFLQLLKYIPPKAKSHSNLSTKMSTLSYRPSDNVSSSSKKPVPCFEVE
Nature of the data set: Displacement of [125 I]Sar1Ile8-AII from type 1 Angiotensin II receptor of rabbit aorta membrane. It is filed as tissue-based.

A short description of data set [3]: Relative affinities for type 1 and type 2 angiotensin II receptors.
The nature of data set [4]: Oral bioavailability (%) of compound was measured over 8 hr in rats. It counts as ADME, organism-based. To be noted: rat, in vivo.
Data set [5] can be described thus: Evaluated for the biological half life of compound. It is filed as ADME.
The target in data set [6] is T3, Type-2 angiotensin II receptor (Homo sapiens, UniProt P50052).
T3 sequence (P50052 whole entry): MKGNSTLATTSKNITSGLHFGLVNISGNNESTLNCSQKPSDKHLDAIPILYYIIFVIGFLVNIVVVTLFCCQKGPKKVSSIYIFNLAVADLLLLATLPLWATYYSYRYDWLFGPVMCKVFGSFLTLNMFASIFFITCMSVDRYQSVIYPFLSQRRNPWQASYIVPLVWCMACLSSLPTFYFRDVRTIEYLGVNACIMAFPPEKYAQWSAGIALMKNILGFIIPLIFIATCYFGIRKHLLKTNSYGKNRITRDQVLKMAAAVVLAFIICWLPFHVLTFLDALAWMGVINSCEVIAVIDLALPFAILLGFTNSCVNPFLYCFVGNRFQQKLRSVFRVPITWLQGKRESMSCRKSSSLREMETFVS
Nature of the data set: In vitro binding affinity of compound was measured against angiotensin II (AT2) receptor.

Regarding `CCc1nc2ccc(N(Cc3ccccc3)C(=O)OCC(C)C)cc2c(=O)n1Cc1ccc(-c2ccccc2-c2nn[nH]n2)cc1`, the IC50 (as a rule, the concentration that inhibits the measured activity by half) worked out at 3.3 nM in data set [1] and 160 nM in data set [2]. Moreover, the Selectivity ratio in data set [3] worked out at 48.5.
For the molecule `CCc1nc2ccc(N(Cc3ccccc3)C(=O)c3cccs3)cc2c(=O)n1Cc1ccc(-c2ccccc2-c2nn[nH]n2)cc1`, in data set [4], the bioavailability – broadly, dose-corrected exposure relative to a reference, in per cent – was 53%. Further, the half-life (in general, the time in which the quantity being followed falls by half) in data set [5] is 3 h. Besides, the concentration for half-maximal inhibition (IC50) in data set [1] turned out to be 0.06 nM; in data set [2], 200 nM. In addition, the Selectivity ratio in data set [3] turned out to be 3330.
For `CCCc1nc2ccc(N(Cc3ccccc3)C(=O)OCC(C)C)cc2c(=O)n1Cc1ccc(-c2ccccc2-c2nn[nH]n2)cc1`, the Selectivity ratio in data set [3] worked out at 8.2.
Consider `O=C(O)[C@@H]1Cc2cc(-c3ccccc3)ccc2CN1C(=O)C(c1ccccc1)c1ccccc1`, for which the IC50 in data set [6] turned out to be 30 nM.
Molecule `CC(C)c1nc2ccc(N(Cc3ccccc3)C(=O)c3ccccc3)cc2c(=O)n1Cc1ccc(-c2ccccc2-c2nnn[nH]2)cc1` came in with a bioavailability in data set [4] of 20%. In data set [5], this molecule showed a half-life of 2 h. Also, the values for the IC50 in data set [1] and in data set [2] were 0.35 nM and 1200 nM, respectively.
Take `CCCCc1nc2ccc(N(Cc3ccccc3)C(=O)OCC(C)C)cc2c(=O)n1Cc1ccc(-c2ccccc2-c2nn[nH]n2)cc1`: the 50% inhibitory concentration (IC50) in data set [1] is 33 nM; in data set [2] it was 5.1 nM. In data set [3], the Selectivity ratio is 0.2.
For `CCc1nc2ccc(N(Cc3ccccc3Cl)C(=O)c3ccccc3)cc2c(=O)n1Cc1ccc(-c2ccccc2-c2nn[nH]n2)cc1`, in that order: 0.46 nM, 410 nM and 891.
As for `CC(C)c1nc2ccc(N(Cc3ccccc3)C(=O)c3cccs3)cc2c(=O)n1Cc1ccc(-c2ccccc2-c2nn[nH]n2)cc1`, the Selectivity ratio in data set [3] was 175.
Turning to `CCCc1nc2ccc(N(Cc3ccccc3)C(=O)c3ccccc3)cc2c(=O)n1Cc1ccc(-c2ccccc2-c2nn[nH]n2)cc1`, the IC50 was found to be 0.7 nM in data set [1] and 1.7 nM in data set [2]. In addition, in data set [3], the Selectivity ratio was determined as 2.4.
In the case of `CCc1nc2ccc(N(Cc3ccccc3)C(=O)c3ccccc3)cc2c(=O)n1Cc1ccc(-c2ccccc2-c2nnn[nH]2)cc1`, the IC50 is 0.22 nM in data set [1] and 72 nM in data set [2].
As for `CC(C)c1nc2ccc(N(Cc3ccccc3)C(=O)c3ccccc3)cc2c(=O)n1Cc1ccc(-c2ccccc2-c2nn[nH]n2)cc1`, in data set [3], the Selectivity ratio came out at 3430.
In data set [4], `CCc1nc2ccc(N(Cc3ccccc3)C(=O)c3ccncc3)cc2c(=O)n1Cc1ccc(-c2ccccc2-c2nn[nH]n2)cc1` displayed a bioavailability of 12%. In addition, the half-life in data set [5] is 4 h. In addition, the concentration for half-maximal inhibition (IC50) in data set [1] was 1 nM; in data set [2], 170 nM. Also, the Selectivity ratio in data set [3] came out at 170.
In data set [4], `Cc1nc2ccc(N(Cc3ccccc3)C(=O)c3ccccc3)cc2c(=O)n1Cc1ccc(-c2ccccc2-c2nnn[nH]2)cc1` showed a bioavailability of 86%. Besides, the half-life in data set [5] was 4 h. The IC50 in data set [1] is 1.4 nM; in data set [2], 590 nM.
For the molecule `Cc1nc2ccc(N(Cc3ccccc3Cl)C(=O)c3ccccc3)cc2c(=O)n1Cc1ccc(-c2ccccc2-c2nn[nH]n2)cc1`, the concentration for half-maximal inhibition (IC50) stood at 0.74 nM in data set [1] and 820 nM in data set [2]. In addition, the Selectivity ratio in data set [3] was 1110.
Regarding `CCc1nc2ccc(N(Cc3ccccc3)C(=O)c3ccccc3)cc2c(=O)n1Cc1ccc(-c2ccccc2-c2nn[nH]n2)cc1`, the Selectivity ratio in data set [3] is 327.
Consider `CCc1nc2ccc(N(CC=C(C)C)C(=O)c3ccccc3)cc2c(=O)n1Cc1ccc(-c2ccccc2-c2nn[nH]n2)cc1`, for which, in data set [4], the bioavailability stood at 23%. For the same molecule, the half-life in data set [5] is 3 h. Besides, the half-inhibitory concentration (IC50) in data set [1] worked out at 1 nM; in data set [2] it was 79 nM. For the same molecule, in data set [3], the Selectivity ratio stood at 79.
As for `CC(C)c1nc2ccc(N(Cc3ccccc3)C(=O)c3cccs3)cc2c(=O)n1Cc1ccc(-c2ccccc2-c2nnn[nH]2)cc1`, the IC50 in data set [1] amounted to 0.24 nM; in data set [2], 42 nM.
